Patent publication US20130023485A1, “PARENTERAL FORMULATIONS OF PEPTIDES FOR THE TREATMENT OF SYSTEMATIC LUPUS ERYTHEMATOSUS” (Teva Pharmaceutical Industries, Ltd., priority 2003, published 2013)
Read-outs that look alike come from different tables or passages of the source.

What was measured:
[1] = Mouse toxicity study of formulation; type: in vivo; conditions: 30% (w/w) PEG 400 formulation
Text: Thus, it was decided not to further pursue this formulation. In view of the preliminary experiments non-aqueous solvents were not used in the subject formulations.

[2] = system: Compound 1 reference standard (RS) specific T-cells; assay: Inhibition of IL-2 secretion from T-cells of immunized mice after s.c. treatment (ELISA); type: in vivo
Text: The biological activity was monitored by inhibition of IL-2 secretion from Compound 1 reference standard (RS) specific T-cells following subcutaneous (s.c.) treatment with the lyophilized compound solution, i.e. the drug product (DP), at two concentrations. The results of the treatment are compared to those of treating mice with Compound 1 (RS) in phosphate buffered saline (PBS).

LN cells = assay: TGF-β secretion by cultured LN cells of immunized and treated mice (ELISA); type: in vivo, BALB/c mice; conditions: all Compound 1 treatment groups (25-200 μg/mouse)
Description: A group of 20 mice were immunized with 50 μg/mouse of Compound 1 RS. The immunized mice were allocated to five treatment groups as follows: placebo, 25, 50, 100 and 200 μg/mouse of Compound 1 DP (subcutaneous administration). Ten days post immunization and treatment, LN was extracted and single cell suspension was prepared. The in-vitro secretion of IFN-γ and TGF-β by the cultured cells in response to activation with several concentrations of Compound 1 RS was then measured. [table] […] Secretion of IFN-γ and TGF-β, as indication of cellular response, were determined by ELISA of culture media (48 hrs for IFN-γ and 72 hrs for TGF-β).

SLE subjects = assay: Phase Ia clinical study, single s.c. dose, tolerability and safety; type: in vivo, human
Description: Thirty-six (36) subjects participated in the study. To be eligible for inclusion in the study, SLE patients must have fulfilled at least four criteria used for the diagnosis of lupus by the American College of Rheumatology. Patients must also have had stable, mild/moderate disease and score less than or equal to 10 on the SLE Disease Activity Index, SLEDAI. […] A standard battery of safety tests, including blood and urine collection for laboratory tests, was performed at screening, during the day of dosing, at 24 hours post-dose and at 2, 4 and 8 weeks following dosing. Prior to dosing, and on scheduled follow-up visits, blood samples were withdrawn for SLE-related immunological tests, anti-Compound 1 antibodies and PBL proliferation assay. […] The following safety parameters were assessed at Screening, during the hospitalization and at follow-up visits including Termination visit: vital signs (systolic blood pressure, diastolic blood pressure, pulse, oxygen saturation, temperature and weight), 12-lead ECG, change in physical examination and clinical routine laboratory safety tests. Adverse events were recorded at the Dosing Day and at each visit thereafter. SLE-related immunological tests were performed at Screening, during the hospitalization and at follow-up visits including Termination visit. […] Disease activity assessment using the SLE disease activity index score, year 2000 updated (SLEDAI 2K) was assessed at Screening, during the hospitalization and at follow-up visits including Termination visit.

[3] = system: PBL of SLE patients stimulated with human 16/6Id mAb; type: cell-based; conditions: for inhibition of proliferative responses to human 16/6Id mAb: PBL of one SLE patient
Description: Cells were then harvested and radioactivity was counted using a β-counter. Results were expressed as mean counts per minute (cpm) of triplicate cultures. Stimulation indices (the ratio of mean cpm at the optimal concentration of 16/6Id to mean cpm without 16/6Id) were then calculated. A stimulation index (SI)≧2 was considered positive. […] Inhibition of above 50% of the proliferative capacity was considered positive. The Table represents the highest positive inhibition capacity for each peptide. […] Both peptides inhibited the proliferation of PBL of 18/19(95%) of responders tested. It can also be seen in the Table that the magnitudes of inhibitions were similar for both peptides. Thus, it can be concluded that peptides based on CDR1 and CDR3 of the human 16/6Id mAb are efficient inhibitors of the proliferation of PBL of SLE patients to the human 16/6Id mAb.

[4] = system: Balb/c mice and (NZB×NZW)F1 mice; conditions: cited from earlier work
[5] = Solubility of Compound 1 with solubility enhancers (visual examination and analytical assay)
[6] = treated 50 μg/mouse s.c., activator Compd. 1 RS 5 μg/ml
[7] = treated 50 μg/mouse s.c., activator Compd. 1 RS 10 μg/ml
[8] = treated 50 μg/mouse s.c., activator Compd. 1 RS 25 μg/ml
[9] = treated 50 μg/mouse s.c., activator Compd. 1 RS 50 μg/ml
[10] = treated 50 μg/mouse s.c., activator Compd. 1 RS 100 μg/ml
[11] = treated 50 μg/mouse s.c., activator Compd. 1 RS […]
[12] = treated 200 μg/mouse s.c., activator Compd. 1 RS 5 μg/ml
[13] = treated 200 μg/mouse s.c., activator Compd. 1 RS 10 μg/ml
[14] = treated 200 μg/mouse s.c., activator Compd. 1 RS 25 μg/ml
[15] = treated 200 μg/mouse s.c., activator Compd. 1 RS 50 μg/ml
[16] = treated 200 μg/mouse s.c., activator Compd. 1 RS 100 μg/ml
[17] = single s.c. 0.5, 1 or 2.5 mg in Captisol®

Substance: H-GYYWSWIRQPPGKGEEWIG-OH [Compound 1]
- adverse effects [1]: may have been the cause of some adverse effects
- Average inhibition (%) (at the range of 5-100 μg/ml) ([2]; treated 50 μg/mouse s.c.): 45.6%
- IL-2 secretion ([2]; treated 50 μg/mouse s.c., activator Compd. 1 RS 0 μg/ml): BQL
- IL-2 secretion ([2]; treated 50 μg/mouse s.c., activator Compd. 1 RS 0.5 μg/ml): 9 pg/mL
- IL-2 secretion ([2]; treated 50 μg/mouse s.c., activator Compd. 1 RS 1 μg/ml): BQL
- % inhib. of IL-2 secretion [2, 6]: 55%
- IL-2 secretion [2, 6]: 9 pg/mL
- % inhib. of IL-2 secretion [2, 7]: 38%
- IL-2 secretion [2, 7]: 16 pg/mL
- % inhib. of IL-2 secretion [2, 8]: 48%
- IL-2 secretion [2, 8]: 15 pg/mL
- % inhib. of IL-2 secretion [2, 9]: 47%
- IL-2 secretion [2, 9]: 21 pg/mL
- % inhib. of IL-2 secretion [2, 10]: 41%
- IL-2 secretion [2, 10]: 25 pg/mL
- % inhib. of IL-2 secretion [2, 11]: 51%
- IL-2 secretion [2, 11]: 8 pg/mL
- IL-2 secretion ([2]; treated 50 μg/mouse s.c., activator Con A […]): 6,215 pg/ml
- Average inhibition (%) (at the range of 5-100 μg/ml) ([2]; treated 200 μg/mouse s.c.): 60.4%
- IL-2 secretion ([2]; treated 200 μg/mouse s.c., activator Compd. 1 RS 0 μg/ml): BQL
- IL-2 secretion ([2]; treated 200 μg/mouse s.c., activator Compd. 1 RS 0.5 μg/ml): 10 pg/mL
- IL-2 secretion ([2]; treated 200 μg/mouse s.c., activator Compd. 1 RS 1 μg/ml): BQL
- % inhib. of IL-2 secretion [2, 12]: 60%
- IL-2 secretion [2, 12]: 8 pg/mL
- % inhib. of IL-2 secretion [2, 13]: 58%
- IL-2 secretion [2, 13]: 11 pg/mL
- % inhib. of IL-2 secretion [2, 14]: 63%
- IL-2 secretion [2, 14]: 11 pg/mL
- % inhib. of IL-2 secretion [2, 15]: 62%
- IL-2 secretion [2, 15]: 15 pg/mL
- % inhib. of IL-2 secretion [2, 16]: 58%
- IL-2 secretion [2, 16]: 18 pg/mL
- IL-2 secretion ([2]; treated 200 μg/mouse s.c., activator Compd. 1 RS […]): BQL
- IL-2 secretion ([2]; treated 200 μg/mouse s.c., activator Con A […]): 5,403 pg/ml
- TGF-β secreted level (LN cells): below the detection limit
- QTc change from baseline (SLE subjects; [17]): no QTc change from baseline>60 msec
- categorical ECG measurements and digitized ECG parameters versus placebo (SLE subjects; [17]): No differences of clinical significance
- hematology, biochemistry or urinalysis values (SLE subjects; [17]): No clinically significant effect
- incidence of AEs versus placebo (SLE subjects; [17]): no prominent difference
- physical exam (SLE subjects; [17]): No clinically significant effects
- serious or severe adverse events (SLE subjects; [17]): No serious adverse event (SAE) or AE classified as severe occurred
- temperature and weight (SLE subjects; [17]): No clinically significant effect
- vital signs (systolic, diastolic blood pressure, pulse, oxygen saturation) (SLE subjects; [17]): No clinically significant effect
- immunological response to tetanus toxoid (TTX) recall antigen (SLE subjects; single s.c. dose in Captisol®): did not change
- safety and tolerability (SLE subjects; single s.c. dose of 0.5, 1 or 2.5 mg in 120 mg Captisol®): safe and well tolerated
- Percent Inhibition of proliferation, Mean ± SD [3]: 68.12 ± 9.57%
- inhibition of proliferative responses to human 16/6Id mAb ([3]; FIG. 10): inhibited efficiently
- inhibition of proliferative responses to human 16/6Id mAb ([3]; FIG. 11): did inhibit efficiently
- responders whose PBL proliferation was inhibited (above 50%) ([3]; of the 19 responders tested): 84.2%
- 16/6 Id specific antibody response [4]: no effect
- SLE related findings (immune complex deposits in the kidney, proteinuria, leukopenia) [4]: significantly reduced
- solubility ([5]; 30% (w/w) PEG 400): 5000 to 9000 µg/mL
- solubility ([5]; 30% DMA (dimethyl-acetamide) solution): 5000 to 9000 µg/mL
- solubility ([5]; Human Serum Albumin solution): 1000 µg/mL
- solubility ([5]; Hydroxypropyl-β-cyclodextrin solution): ~10000 µg/mL
- solubility ([5]; L-Arginine, resulting pH above 9): at the desired level
- solubility ([5]; Polysorbate 20 / Polysorbate 80 solution, up to 10%): ≤ 2000 µg/mL
- solubility ([5]; Sulfobutylether-β-cyclodextrin (Captisol) solution): ~2500 µg/mL
- effect on solubility ([5]; bulking agents Mannitol, Sorbitol, Dextran, alone and combined): did not improve the solubility
- stability versus pH ([5]; initial tests, limits of desired pH levels): less stable at the basic pH range
- effect on solubility ([5]; non aqueous solvents Ethanol, Glycerin, Propylene glycol, Chremophore and combinations): did not increase the solubility
